Data from patent US6670367B1, “Azinyloxy, and phenoxy-diaryl-carboxylic acid derivatives, their preparation and use as mixed ETA/ETB endothelin receptor antagonists” (Abbott GmbH & Co., KG, priority 1996, dated 2003).

Experiments:
[1] = biological target: T1, human ETA receptor (Homo sapiens, UniProt P25101); experiment: ETA receptor binding assay (125I-ET1, membranes of receptor-expressing CHO cells); conditions: cloned human ETA receptor, CHO cell membranes, 25 pM 125I-ET1, 25° C., 30 min
T1 construct: expressed in transfected cells; host or cells: CHO cells (membrane preparation)
T1 sequence (P25101 21-427): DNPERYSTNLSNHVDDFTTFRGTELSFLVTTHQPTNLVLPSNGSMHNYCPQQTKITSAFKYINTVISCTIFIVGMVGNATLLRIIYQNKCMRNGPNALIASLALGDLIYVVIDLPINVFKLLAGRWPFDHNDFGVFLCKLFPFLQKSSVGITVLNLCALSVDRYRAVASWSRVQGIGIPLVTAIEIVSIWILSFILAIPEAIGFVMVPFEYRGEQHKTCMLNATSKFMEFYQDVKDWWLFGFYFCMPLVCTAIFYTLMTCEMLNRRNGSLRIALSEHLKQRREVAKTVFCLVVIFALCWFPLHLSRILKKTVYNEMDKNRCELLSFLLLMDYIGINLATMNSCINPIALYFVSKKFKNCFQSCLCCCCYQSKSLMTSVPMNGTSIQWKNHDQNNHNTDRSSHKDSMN
Description: (§1) Cloned human ETA or ETB receptor-expressing CHO cells were employed for binding studies.
(§2) The ETA or ETB receptor-expressing CHO cells were grown in DMEM NUT MIX F12 medium (Gibco, No. 21331-020) with 10% fetal calf serum (PAA Laboratories GmbH, Linz, No. A15-022), 1 mM glutamine (Gibco No. 25030-024), 100 U/ml penicillin and 100 μg/ml streptomycin (Gibco, Sigma No. P-0781). After 48 hours, the cells were washed with PBS and incubated with 0.05% trypsin-containing PBS at 37° C. for 5 minutes. Neutralization with medium was then carried out, and the cells were collected by centrifugation at 300×g.
(§3) For the membrane preparation, the cells were adjusted to a concentration of 10^8 cells/ml of buffer (50 mM tris.HCL buffer, pH 7.4) and then disintegrated by ultrasound (Branson Sonifier 250, 40-70 seconds/constant/output 20).
(§4) For the ETA and ETB receptor binding assays, the membranes were suspended in incubation buffer (50 mM tris-HCl, pH 7,4 with 5 mM MnCl2, 40 μg/ml bacitracin and 0.2% BSA) at a concentration of 50 μg of protein per assay mixture, and incubated with 25 pM ^125I-ET1 (ETA receptor assay) or 25 pM ^125I-ET3 (ETB receptor assay) in the presence and absence of test substance at 25° C. The nonspecific binding was determined with 10^−7 M ET1. Filtration was carried out after 30 min through GF/B glassfiber filters (Whatman, England) in a Skatron cell collector (Skatron, Lier, Norway) to separate free and bound radio ligands, and the filters were washed with ice-cold tris-HCl buffer, pH 7.4 with 0.2% BSA. The radioactivity collected on the filters was quantified using a
(§5) Packard 2200 CA liquid scintillation counter.

[2] = biological target: T2, human ETB receptor (Homo sapiens, UniProt P24530); experiment: ETB receptor binding assay (125I-ET3, membranes of receptor-expressing CHO cells); conditions: cloned human ETB receptor, CHO cell membranes, 25 pM 125I-ET3, 25° C., 30 min
T2 construct: expressed in transfected cells; host or cells: CHO cells (membrane preparation)
T2 sequence (P24530 27-442): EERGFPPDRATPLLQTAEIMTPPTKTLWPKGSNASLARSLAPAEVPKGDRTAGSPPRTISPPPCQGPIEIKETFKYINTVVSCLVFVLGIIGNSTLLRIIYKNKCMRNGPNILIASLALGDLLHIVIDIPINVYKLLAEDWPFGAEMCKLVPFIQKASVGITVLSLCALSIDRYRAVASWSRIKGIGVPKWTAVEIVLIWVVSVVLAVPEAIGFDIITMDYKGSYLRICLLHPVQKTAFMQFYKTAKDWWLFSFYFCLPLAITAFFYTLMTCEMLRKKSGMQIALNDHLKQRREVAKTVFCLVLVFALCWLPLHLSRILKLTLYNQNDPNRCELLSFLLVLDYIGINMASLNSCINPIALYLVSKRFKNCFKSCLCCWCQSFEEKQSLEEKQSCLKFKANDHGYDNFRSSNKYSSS
Description: as §1, §2, §3, §4, §5

Compound	Ki [1]	melting point	Ki [2]
COc1nc(OC(C(=O)O)C(OCCc2ccc(C)cc2)(c2ccccc2)c2ccccc2)nc2c1CCO2 (stereo not drawn) [Compound I-370, 2-(4-Methoxy-5,6-dihydrofuro(2,3d)-2-pyrimidinyloxy)-3-(2-(4-methylphenyl)ethoxy)-3,3-diphenylpropionic Acid]	11 nM	128 to 130 °C	54 nM
COc1ccc(CCOC(c2ccccc2)(c2ccccc2)C(Oc2nc(C)cc(C)n2)C(=O)O)cc1OC (stereo not drawn) [Compound I-445]	3.5 nM	125 to 130 °C (dec.)	7.2 nM
COc1cc(CCOC(c2ccc(Cl)cc2)(c2ccc(Cl)cc2)C(Oc2nc(OC)c3c(n2)OCC3)C(=O)O)cc(OC)c1 (stereo not drawn) [Compound I-593, 2-(4-Methoxy-5,6-dihydrofuro(2,3d)-2-pyrimidinyloxy)-3-(2-(3,5-dimethoxyphenyl)ethoxy)-3,3-di(4-chlorophenyl)propionic Acid]	300 nM	90 to 100 °C	160 nM
COc1ccc(CCOC(c2ccc(Cl)cc2)(c2ccc(Cl)cc2)C(Oc2nc(OC)c3c(n2)OCC3)C(=O)O)cc1OC (stereo not drawn) [Compound I-635, 2-(4-Methoxy-5,6-dihydrofuro(2,3d)-2-pyrimidinyloxy)-3-(2-(3,4-dimethoxyphenyl)ethoxy)-3,3-di(4-chlorophenyl)propionic Acid]	210 nM	100 to 110 °C	126 nM
COc1cc(C)nc(OC(C(=O)O)C(OCCc2ccc(OC)c(OC)c2)(c2ccc(Cl)cc2)c2ccc(Cl)cc2)n1 (stereo not drawn) [Compound I-699, 2-(4-Methoxy-6-methyl-2-pyrimidinyloxy)-3-(2-(3,4-dimethoxyphenyl)ethoxy)-3,3-di(4-chlorophenyl)propionic Acid]	230 nM	100 to 110 °C	130 nM
Cc1cc(C)nc(OC(C(=O)O)C(OCCc2ccc(Cl)cc2)(c2ccccc2)c2ccccc2)n1 (stereo not drawn) [Compound I-713, 2-(4,6-Dimethyl-2-pyrimidinyloxy)-3-(2-(4-chlorophenyl)ethoxy)-3,3-diphenylpropionic Acid]	20 nM	108 °C (dec.)	96 nM
